Patent publication US11701360B2, “Composition for inducing differentiation and protection of neural stem cells and method for inducing neuro-regeneration using the same composition” (GENUV Inc., priority 2017, dated 2023)

Legend:
[1] = tested on: mouse embryonic neural stem cells; assay: Morphology analysis (phase-contrast) of NSC differentiation in mouse embryonic neural stem cells; type: cell-based; details: 4 days of culture
Protocol: Neural stem cells were isolated from the brain of a day 14.5 mouse embryo, treated with 10 ng/ml human basic fibroblast growth factor (bFGF) (Peprotech, Princeton, NG, cat #0.100-18B) and 20 ng/ml human epidermal growth factor (EGF) (Peprotech, cat #. AF-100-15) in a N2 culture medium, and cultured in suspension in a 25 cm2 flask (Nunc, Pittsburgh, Pa.) for 4 days. Formation of neurospheres was observed after 2 days.
In order to isolate single cells, 6-well plates were prepared the day before by treating the wells with 15 μg/ml poly-L-ornithine (Sigma, St. Louis, Mo., cat #.P2533) solution and incubating overnight at 37° C. for coating. The day of the single cell isolation, poly-L-ornithine solution was removed, the plates were washed with PBS three times, and 10 μg/ml fibronectin (Gibco, Waltham, Mass., cat #. 33016015) solution was added and incubated at 37° C. for 2 hours for coating.
Various concentrations of the compound of [Formula 1]
FIG. 10b is the analysis of Tuj1 mRNA expression in the cells of each group.

[2] = tested on: mouse adult neural stem cells; details: 10 nM and 100 nM; regardless of 10 μM amyloid-beta; 4 days
Protocol: NSC were isolated from the subventricular zone of week 8 mouse brain, treated with 20 ng/ml human basic fibroblast growth factor (bFGF) and 20 ng/ml human epidermal growth factor (EGF) in an IPM medium, and cultured as a suspension in 24-well plates for 7 days.
Two days before the isolation of single cells, 6-well plates were prepared by treating the wells with 10 μg/ml poly-L-ornithine solution and incubating overnight at room temperature for coating. The next day, poly-L-ornithine solution was removed and the plates were washed 3 times with sterilized triple distilled water. […] The culture solution used is N2 culture medium (supplemented with 20 ng/ml bFGF and 20 ng/ml EGF). Right before seeding, the coating solution was suctioned out, and the single cells were uniformly seeded into the culture plate before the plate dried up. Cells were allowed to attach to the plates for about one minute, and after checking that cells were sufficiently attached, an additional 1.5 ml of culture medium (N2 culture medium with 20 ng/ml bFGF and 20 ng/ml EGF) was added to the cells and cultured in a 37° C. incubator for 24 hours.
Wells not treated with amyloid-beta were left to use as negative controls.
Gibco's (Waltham, Mass.) human Aβ (1-42) was purchased to use for the amyloid-beta (Aβ), and the following process was followed to create oligomers. […] Then, it was dried for 10 minutes in a speed Vac, after which DMSO (Sigma, cat #.D2650) was added to bring the concentration to 5 mM and then lightly vortexed at room temperature for 10 minutes. […] The solution was incubated at 4° C. for 24 hours and then added into the cultured cells.
The NCSs were cultured with the daily addition of EGF, bFGF, amyloid-beta, and test materials for 4 days.

[3] = tested on: mouse embryonic neural stem cells; assay: Immunocytochemistry analysis (Tuj1/DAPI staining); type: cell-based; details: 10 nM; 4 days
Protocol: Tuj1 (Neuron specific class III beta-tubulin) is a neuron specific marker protein, which was conjugated to rhodamine to show fluorescent red, while DAPI binds to the cell DNA and stains the cell nuclei fluorescent blue. […] The medium was removed and the cells were washed with PBS. After fixing with 10% formaldehyde (Sigma cat #. HT501128) at room temperature for 10 minutes, they were washed again with PBS. They were permeabilized with 0.2% Triton X-100 (Sigma, cat #. 93443) at room temperature for 15 minutes, washed with PBS, and incubated with 10% BSA (Sigma, cat #. A2153)+1% normal goat serum (Vector lab, Burlingame, Calif., cat #. S1000) at room temperature for 1 hour. […] The solution was removed, washed with PBS, and incubated at room temperature for 1 hour with the secondary antibody (rhodamine-conjugated antibody) diluted in 1% BSA+1% normal goat serum at a ratio of 1:200. Then, the cells were washed with PBS, incubated with 5 μg/ml DAPI (Sigma, cat #. D9542) for 5 minutes, washed with PBS again, and mounted on a slide glass for analysis with a fluorescent microscope.

[4] = tested on: mouse embryonic neural stem cells; assay: qRT-PCR of neuronal marker mRNA expression in mouse embryonic NSC; type: cell-based
Protocol: Isopropanol (Ducsan, GyunggiDo, Korea, cat #. 67-63-0) was added and mixed for RNA isolation, then centrifuged again to remove the supernatant and obtain the pellet. The RNA pellet was resuspended in 75% ethanol (Ducsan, cat #. 64-17-15), centrifuged, and the supernatant removed. The pellet was then resuspended in sterilized triple distilled water to obtain the mRNA, incubated for 10 minutes at 55° C., and stored at −80° C.
Sterilized triple distilled water, 1 pM oligo dT, and 1 mM dNTP were added to the RNA and incubated for 5 minutes at 65° C. This was followed by the addition of 5× First-strand buffer, 10 mM DTT, and M-MLV reverse transcriptase and incubated at 42° C. for 1 hour, then at 72° C. for 15 minutes, and at 4° C. for 30 minutes. The synthesized cDNA was stored at −20° C.
The term relative mRNA expression level signifies that in order to normalize each group's total RNA level, the mRNA expression level of each differentiation marker is divided by the expression level of GAPDH whose expression level is fairly constant across cells, and then the values of each test material are compared with those of the controls (undifferentiated NSC) in each group.

[5] = tested on: mouse adult neural stem cells; assay: qRT-PCR of neuronal marker mRNA expression in mouse adult NSC; type: cell-based; details: 10 nM; 2 days
[6] = tested on: 5XFAD mouse; assay: NeuN immunohistochemical staining of brain slices, 5XFAD AD model mouse; type: in vivo; details: orally daily for 28 days; vs vehicle
Protocol: The mouse was then anesthetized and perfused with PBS for the extraction of the brain. […] The other half of the hemispheres plus another 3 extracted mice brains per group were placed in 10% formalin solution at 4° C. for 1 day, which was then followed with the proceeding steps to allow good penetration of paraffin into the brain tissue. The brain tissues were immersed sequentially in 70%, 80%, 95%, 100% alcohol for 1 hour each for dehydration, then immersed in xylene 3 times for 1 hour each for clearing, and embedded in paraffin by placing in liquid paraffin 2 times for 1 hour each. After these procedures, the paraffin-embedded brain tissue (paraffin block) was cut into 5 μm sections, mounted on slides, and stored at room temperature. […]
FIG. 13b indicates the number of NeuN stained cells counted and represented as the percentage of the number of cells per unit area in the motor cortex layer 5 region. Area samples were taken from 6 areas per mouse, 3 mice per group, so the number of cells counted was from a total of 18 areas.
FIG. 14b indicates the number of NeuN stained cells counted and represented as the percentage of the number of cells per unit area in the dotted area of the hippocampal subiculum shown in FIG. 14a. Area samples were taken from 3 areas per mouse, 3 mice per group, so the number of cells counted was from a total of 9 areas.

[7] = tested on: 5XFAD mouse; assay: Tuj1 staining in the somatosensory cortex, 5XFAD mouse; type: in vivo
Protocol: Anti-Tuj1 antibodies were added to the brain tissue slides of 5XFAD mouse in Example 8 and incubated at 4° C. for 1 day, after which the tissue slides were fluorescently stained by incubating with Fluorescein isothiocyanate (FITC)-secondary antibodies (Invitrogen, cat #. A21121) at room temperature for 1 hour. In FIG. 15, the areas marked with arrows (→) indicate cells stained with Tuj1 and the areas marked with arrowheads (▾) indicate plaques formed by amyloid-beta aggregation. Plaques were present in both vehicle-treated and trametinib-treated groups.

[8] = tested on: 5XFAD mouse; assay: Nissl, NeuN and DCX staining in the hippocampal dentate gyrus, 5XFAD mouse; type: in vivo; details: orally daily for 28 days
Protocol: After placing in 0.1% cresyl violet (Sigma, cat #. C5042) solution at room temperature for 15 minutes, they were dehydrated by sequentially immersing in 80%, 90%, 100% alcohol, and xylene. Coverslips were put on the slides and the neurons examined.
NeuN staining was performed by the same method as described in Example 8 as was DCX staining, but using anti-DCX antibodies (Santa Cruz, cat #. sc271390) instead of anti-NeuN antibodies.

[9] = tested on: 5XFAD mouse; assay: TUNEL assay of apoptosis in brain slices, 5XFAD mouse; type: in vivo; details: orally daily for 28 days; vs vehicle
Protocol: The TUNEL assay stains the 3′-hydroxyl terminus of fragmented DNA, allowing the detection of cells undergoing apoptosis in the tissue.
Specifically, the brain tissue slides were permeabilized with 20 μg/ml proteinase K solution for 10 minutes, incubated with equilibration buffer for 10 minutes, and then incubated with TdT solution at 37° C. for 1 hour.

[10] = tested on: 5XFAD mouse; assay: Tuj1 and calbindin staining of cerebellar Purkinje cells, 5XFAD mouse; type: in vivo; details: particularly 0.1 mg/kg; vs vehicle
From the text: Two slides for Tuj1 staining and three for calbindin staining are shown for each treatment group.

[11] = tested on: pERK; assay: Western blotting of pERK in brain hemispheres, 5XFAD mouse; type: in vivo; details: 0.1 mg/kg and 1.0 mg/kg PO; vs vehicle
[12] = tested on: Aβ(1-40) and Aβ(1-42); assay: ELISA of Aβ(1-40) and Aβ(1-42) in brain hemispheres, 5XFAD mouse; type: in vivo; details: orally daily for 28 days; vs vehicle
[13] = tested on: MEK 1, MEK2; details: cited from earlier work
[14] = tested on: 5XFAD mouse; assay: BrdU staining in the hippocampal dentate gyrus, 5XFAD mouse; details: orally daily for 28 days; vs vehicle
Protocol: For the BrdU staining to be performed later, 50 mg/kg of BrdU (Sigma, cat #. B5002) was added to the daily dose for the last 5 days. The mouse was then anesthetized and perfused with PBS for the extraction of the brain. […] The other half of the hemispheres plus another 3 extracted mice brains per group were placed in 10% formalin solution at 4° C. for 1 day, which was then followed with the proceeding steps to allow good penetration of paraffin into the brain tissue. The brain tissues were immersed sequentially in 70%, 80%, 95%, 100% alcohol for 1 hour each for dehydration, then immersed in xylene 3 times for 1 hour each for clearing, and embedded in paraffin by placing in liquid paraffin 2 times for 1 hour each. After these procedures, the paraffin-embedded brain tissue (paraffin block) was cut into 5 μm sections, mounted on slides, and stored at room temperature. Prior to immunohistochemical staining, the tissues on the slides were rehydrated by sequentially immersing in xylene, 100%, 90%, 80%, 70%, 50% alcohol, and then water for 5 minutes each. […] The next day, the slides were incubated with anti-rabbit antibodies (Vector lab, cat #. PI-1000) at room temperature for 1 hour and then stained with DAB staining for the analysis of the neuronal distribution in the brain.

[15] = 1 nM, 10 nM, 25 nM, 100 nM, 2 days

CC(=O)Nc1cccc(-n2c(=O)n(C3CC3)c(=O)c3c(Nc4ccc(I)cc4F)n(C)c(=O)c(C)c32)c1 [trametinib, N-(3-{3-cyclopropyl-5-[(2-fluoro-4-iodophenyl)amino]-6,8-dimethyl-2,4,7-trioxo-3,4,6,7-tetrahydropyrido[4,3-d]pyrimidin-1(2H)-yl}phenyl)acetamide]
differentiation of NSC into neurons (morphology) ([1]; 10 nM, 25 nM and 100 nM): readily induced the differentiation of NSC into neurons | concentration at which differentiation of NSC into neurons is seen [1]: ≥ 10 nM | differentiation of NSC into neurons (morphology) [2]: readily induced the differentiation of NSC into neurons | neuron differentiation (Tuj1 staining) [3]: increasingly active differentiation activity | mRNA expression of GABAergic neuron marker Gad1 [4, 15]: increased with the increase in concentration | mRNA expression of cholinergic neuron marker ChAT [4, 15]: increased with the increase in concentration | mRNA expression of dopaminergic neuron marker TH [4, 15]: increased with the increase in concentration | mRNA expression of motor neuron marker Isl1 [4, 15]: increased with the increase in concentration | concentration at which differentiation-inducing effect is exerted (Tuj1, TH mRNA) ([4]; 4 days): 1 nM | mRNA expression of cholinergic neuron marker ChAT [5]: increased | mRNA expression of dopaminergic neuron marker TH [5]: increased | mRNA expression of neuronal marker Tuj1 [5]: increased | number of NeuN stained neurons, hippocampal subiculum [6]: significant increase in the number of neurons | number of NeuN stained neurons, motor cortex layer 5 [6]: significant increase in the number of neurons | lowest dose showing neural stem cell differentiation-inducing activity [7]: 0.1 mg/kg/day | immature neurons stained by DCX in dentate gyrus [8]: seen to be present | number of cells with Type 2 or Type 3 morphology in dentate gyrus (Nissl and NeuN staining) [8]: increased considerably | number of TUNEL stained cells in somatosensory cortex and subiculum [9]: significantly lower | axon structure of cerebellar Purkinje cells [10]: increased axon arborization or at least with preserved axon structure | protein level of pERK in the brain [11]: considerably lower | amount of Aβ(1-42)/Aβ(1-40) in brain [12]: decreased | IC50 [13]: 0.92 to 3.4 nM | number of cells stained with BrdU in the dentate gyrus [14]: an increase in the number of cells stained with BrdU
